Laboratory results from patent US20240150321A1, “PYRAZOLYLSULFONAMIDE COMPOUNDS AND THEIR USE IN THERAPY” (HOTSPOT THERAPEUTICS, INC., priority 2022, published 2024).
Read-outs that look alike come from different tables or passages of the source.

Key:
[1] = biological target: Avi-tagged FL MALT-1 (Homo sapiens (Human), UniProt Q9UDY8); test: MALT-1 Fluorogenic Peptide Cleavage Assay (MALT1 inhibition assay); assay type: biochemical; settings: Ac-LRSR-AMC peptide substrate, 30 min pre-incubation, 90 min reaction at room temperature
Sequence of Avi-tagged FL MALT-1 (Q9UDY8 whole entry): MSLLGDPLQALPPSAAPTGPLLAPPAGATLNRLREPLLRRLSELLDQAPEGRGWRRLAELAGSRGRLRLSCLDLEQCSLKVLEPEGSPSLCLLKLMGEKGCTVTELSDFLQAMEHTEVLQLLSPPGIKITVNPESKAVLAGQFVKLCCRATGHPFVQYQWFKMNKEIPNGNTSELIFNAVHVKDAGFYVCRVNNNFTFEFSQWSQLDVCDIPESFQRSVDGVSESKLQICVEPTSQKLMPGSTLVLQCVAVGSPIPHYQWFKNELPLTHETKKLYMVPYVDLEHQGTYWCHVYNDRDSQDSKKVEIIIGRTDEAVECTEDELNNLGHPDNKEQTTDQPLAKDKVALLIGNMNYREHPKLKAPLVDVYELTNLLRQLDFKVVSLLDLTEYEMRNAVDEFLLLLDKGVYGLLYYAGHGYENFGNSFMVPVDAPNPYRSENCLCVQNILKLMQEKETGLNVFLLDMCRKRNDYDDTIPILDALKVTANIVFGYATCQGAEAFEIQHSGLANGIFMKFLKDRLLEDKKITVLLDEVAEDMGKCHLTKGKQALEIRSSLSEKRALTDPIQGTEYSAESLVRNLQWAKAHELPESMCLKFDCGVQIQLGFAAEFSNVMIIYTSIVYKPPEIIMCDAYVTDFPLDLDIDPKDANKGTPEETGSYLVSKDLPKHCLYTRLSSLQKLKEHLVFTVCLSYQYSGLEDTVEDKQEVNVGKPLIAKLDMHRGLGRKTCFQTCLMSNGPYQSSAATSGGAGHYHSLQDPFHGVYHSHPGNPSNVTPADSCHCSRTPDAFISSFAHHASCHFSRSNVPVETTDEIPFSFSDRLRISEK
How it was run: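 Full-length Avi-tagged human MALT-1 (40 nM working stock) pre-incubated 30 min at RT with compound in 25 mM HEPES pH 6.89, 660 mM sodium citrate, 1 mM TCEP, […], 0.05% CHAPS, 2% DMSO. Ac-LRSR-AMC added at Km (50 μM working stock) or 10×Km (280 μM working stock); 90 min at RT, AMC fluorescence (ex 342/em 441 nm), IC50 from % inhibition curves.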

[2] = test system: NF-kB reporter in Jurkat cells; test: NF-kB reporter assay in Jurkat cells stimulated with aCD3/aCD28/PMA; assay type: cell-based; settings: read-out: NF-kB Reporter Assay IC50
How it was run: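 Jurkat cells (25,000/well, serum-free RPMI) were pre-incubated 1 h at 37° C with serially diluted compound, then stimulated 4 h with aCD3/aCD28/PMA at final […]. NF-kB reporter activity was read by One-Glo luminescence; IC50 values reported.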

[3] = Jurkat cells, 1 hr compound pre-incubation, aCD3/aCD28/PMA stimulation 4 hr, One-Glo readout
[4] = Homo sapiens, Jurkat cells, 1 hr compound pre-incubation, aCD3/aCD28/PMA stimulation 4 hr, One-Glo readout

Structure (SMILES)	IC50 [1] [nM]	IC50 [2, 3] [nM]	IC50 [2, 4] [nM]	IC50 ([2]; Homo sapiens, Jurkat) [nM]
COc1ccc2cnn(C)c2c1NS(=O)(=O)c1cnn(-c2cc(C3(OC)CC(C)C3)ccn2)c1 (single isomer, unassigned) [Compound I-365, N-(6-methoxy-1-methyl-1H-indazol-7-yl)-1-(4-(1-methoxy-3-methylcyclobutyl)pyridin-2-yl)-1H-pyrazole-4-sulfonamide]	≤ 400	< 400		
Cn1ncc2cccc(NS(=O)(=O)c3cnn(-c4cc(C5(O)COC5)ccn4)c3)c21 [Compound I-101, 1-(4-(3-hydroxyoxetan-3-yl)pyridin-2-yl)-N-(1-methyl-1H-indazol-7-yl)-1H-pyrazole-4-sulfonamide]	> 2500		< 400	
COc1ccc2cnn(C)c2c1NS(=O)(=O)c1cnn(-c2cc(N3CCCC3)ccn2)c1 [Compound I-381, N-(6-methoxy-1-methylindazol-7-yl)-1-[4-(pyrrolidin-1-yl)pyridin-2-yl]pyrazole-4-sulfonamide]	400 to 1000		< 400	
[2H]C([2H])([2H])c1ccc2cnn(C)c2c1NS(=O)(=O)c1cnn(-c2cc(C(F)(F)F)ccn2)c1 [Compound I-71, N-(1-Methyl-6-(Methyl-D3)-1H-Indazol-7-yl)-1-(4-(Trifluoromethyl)Pyridin-2-yl)-1H-Pyrazole-4-Sulfonamide]	≤ 400		< 400	
Cn1cc2ccc(Cl)c(NS(=O)(=O)c3cnn(-c4ccnc(C(F)(F)F)c4)c3)c2n1 [Compound I-47, N-(6-Chloro-2-Methyl-2H-Indazol-7-yl)-1-(2-(Trifluoromethyl) Pyridin-4-yl)-1H-Pyrazole-4-Sulfonamide]	> 2500		> 2500	
Cn1ncc2cccc(NS(=O)(=O)c3cnn(-c4cc(C5=CCOC5)ccn4)c3)c21 [Compound I-109, 1-(4-(2,5-Dihydrofuran-3-yl)Pyridin-2-yl)-N-(1-Methyl-1H-Indazol-7-yl)-1H-Pyrazole-4-Sulfonamide]	> 2500		< 400	
COc1ccc2cnn(C)c2c1NS(=O)(=O)c1cnn(-c2cc(N3CC(C)(C(N)=O)C3)ccn2)c1 [Compound I-472]	> 2500		1000 to 2500	
CCc1ccc2cnn(C)c2c1NS(=O)(=O)c1cnn(-c2cc(C(F)(F)F)ncn2)c1 [Compound I-19, N-(6-Ethyl-1-Methyl-1H-Indazol-7-yl)-1-(6-(Trifluoromethyl) Pyrimidin-4-yl)-1H-Pyrazole-4-Sulfonamide]	≤ 400		< 400	
Cn1ncc2cccc(NS(=O)(=O)c3cnn(-c4cc(C5(F)CCC5)ccn4)c3)c21 [Compound I-94, 1-(4-(1-fluorocyclobutyl)pyridin-2-yl)-N-(1-methyl-1H-indazol-7-yl)-1H-pyrazole-4-sulfonamide]	> 2500		< 400	
CCc1ccc2cnn(C)c2c1NS(=O)(=O)c1cnn(-c2cc(C)nc(C)c2)c1 [Compound I-32, 1-(2,6-Dimethylpyridin-4-yl)-N-(6-ethyl-1-Methyl-1H-Indazol-7-yl)-1H-Pyrazole-4-Sulfonamide]	≤ 400		400 to 1000	
COC[C@@](C)(F)c1ccnc(-n2cc(S(=O)(=O)Nc3cccc4cnn(C)c34)cn2)c1 [Compound I-331, (S)-1-(4-(2-fluoro-1-methoxypropan-2-yl)pyridin-2-yl)-N-(1-methyl-1H-indazol-7-yl)-1H-pyrazole-4-sulfonamide]	> 2500		< 400	
CCC(OC)c1ccnc(-n2cc(S(=O)(=O)Nc3cccc4cnn(C)c34)cn2)c1 (stereo not shown) [Compound I-297, 1-{4-[1-methoxypropyl]pyridin-2-yl}-N-(1-methylindazol-7-yl)pyrazole-4-sulfonamide]	> 2500		< 400	
COc1ccc2cnn(C)c2c1NS(=O)(=O)c1cnn(-c2cc(N3CC(C(N)=O)C3)ccn2)c1 [Compound I-459]	> 2500		> 2500	
COc1ccc2cnn(C)c2c1NS(=O)(=O)c1cnn(-c2cnn3c2CN(C)CC3)c1 [Compound I-468, N-(6-methoxy-1-methylindazol-7-yl)-1-{5-methyl-4H,6H,7H-pyrazolo[1,5-a]pyrazin-3-yl}pyrazole-4-sulfonamide]	> 2500		> 2500	
Cn1ncc2cccc(NS(=O)(=O)c3cnn(-c4cc(C5(O)CCOC5)ccn4)c3)c21 (stereo not shown) [Compound I-128, 1-(4-(3-hydroxytetrahydrofuran-3-yl)pyridin-2-yl)-N-(1-methyl-1H-indazol-7-yl)-1H-pyrazole-4-sulfonamide]	> 2500		< 400	
COc1ncc2cnn(C)c2c1NS(=O)(=O)c1cnn(-c2cc(C(F)(F)F)n(C)n2)c1 [Compound I-286, N-(6-methoxy-1-methyl-1H-pyrazolo[4,3-c]pyridin-7-yl)-1′-methyl-5′-(trifluoromethyl)-1′H-[1,3′-bipyrazole]-4-sulfonamide]	≤ 400		400 to 1000	

Structure (SMILES)	IC50 [1] [nM]	IC50 [2, 3] [nM]	IC50 [2, 4] [nM]	IC50 ([2]; Homo sapiens, Jurkat) [nM]
COc1ncc2cnn(C)c2c1NS(=O)(=O)c1cnn(-c2cc(N3CC[C@@H](F)C3)ccn2)c1 [Compound I-427]	> 2500		400 to 1000	
Cn1nc(Cl)c2cccc(NS(=O)(=O)c3cnn(-c4cc(C(F)(F)F)ccn4)c3)c21 [Compound I-111, N-(3-chloro-1-methyl-1H-indazol-7-yl)-1-(4-(trifluoromethyl)pyridin-2-yl)-1H-pyrazole-4-sulfonamide]	> 2500		< 400	
Cn1ncc2ccc(C3CC3)c(NS(=O)(=O)c3cnn(-c4cncc(C(F)(F)F)c4)c3)c21 [Compound I-18]	≤ 400		400 to 1000	
Cn1ncc2ccc(C3CC3)c(NS(=O)(=O)c3cnn(-c4ccnc(C(F)(F)F)c4)c3)c21 [Compound I-21, N-(6-cyclopropyl-1-Methyl-1H-Indazol-7-yl)-1-(2-(Trifluoromethyl)Pyridin-4-yl)-1H-Pyrazole-4-Sulfonamide]	≤ 400		< 400	
CCc1ccc2cnn(C)c2c1NS(=O)(=O)c1cnn(-c2cc(C(F)(F)F)ccn2)c1 [Compound I-14, N-(6-Ethyl-1-Methyl-1H-Indazol-7-yl)-1-(4-(Trifluoromethyl) Pyridin-2-yl)-1H-Pyrazole-4-Sulfonamide]	≤ 400		< 400	
Cn1ncc2cccc(NS(=O)(=O)c3cnn(-c4cc(C5(F)CC(F)C5)ccn4)c3)c21 (stereo not shown) [Compound I-112, 1-(4-(1,3-difluorocyclobutyl)pyridin-2-yl)-N-(1-methyl-1H-indazol-7-yl)-1H-pyrazole-4-sulfonamide]	> 2500		< 400	
Cn1ncc2cccc(NS(=O)(=O)c3cnn(-c4cc([C@]5(O)C[C@H](C)C5)ccn4)c3)c21 [Compound I-288, 1-(4-((1r,3r)-1-hydroxy-3-methyl-cyclobutyl)pyridin-2-yl)-N-(1-methyl-1H-indazol-7-yl)-1H-pyrazole-4-sulfonamide]	> 2500		< 400	
CCc1ccc2cnn(C)c2c1NS(=O)(=O)c1cnn(-c2cc(OC(F)(F)F)ccn2)c1 [Compound I-43, N-(6-Ethyl-1-Methyl-1H-Indazol-7-yl)-1-(4-(Trifluoromethoxy) Pyridin-2-yl)-1H-Pyrazole-4-Sulfonamide]	> 2500		> 2500	
COc1ccc2cnn(C)c2c1NS(=O)(=O)c1cnn(-c2cc(C3(OC)CCC3)ccn2)c1 [Compound I-132, N-(6-Methoxy-1-Methyl-1H-Indazol-7-yl)-1-(4-(1-Methoxycyclobutyl)Pyridin-2-yl)-1H-Pyrazole-4-Sulfonamide]	≤ 400			< 400
CC[C@@](C)(O)c1ccnc(-n2cc(S(=O)(=O)Nc3cccc4cnn(C)c34)cn2)c1 [Compound I-295]	> 2500		< 400	
Cn1ncc2cccc(NS(=O)(=O)c3cnn(-c4cc(N5CC(C)(C)C5)ccn4)c3)c21 [Compound I-367]	> 2500		< 400	
CCc1ccc2cnn(C)c2c1NS(=O)(=O)c1cnn(-c2cncc(C(F)(F)F)c2)c1 [Compound I-3, N-(6-Ethyl-1-Methyl-1H-Indazol-7-yl)-1-(5-(Trifluoromethyl) Pyridin-3-yl)-1H-Pyrazole-4-Sulfonamide]	≤ 400		< 400	
Cn1ncc2cccc(NS(=O)(=O)c3cnn(-c4cc(C(F)(F)F)ccn4)c3)c21 [Compound I-15, N-(1-Methyl-1H-Indazol-7-yl)-1-(4-(Trifluoromethyl)Pyridin-2-yl)-1H-Pyrazole-4-Sulfonamide]	400 to 1000		< 400	
CCc1ccc2cn(C)nc2c1NS(=O)(=O)c1cnn(-c2ccnc(C(F)(F)F)c2)c1 [Compound I-48, N-(6-Ethyl-2-Methyl-2H-Indazol-7-yl)-1-(2-(Trifluoromethyl) Pyridin-4-yl)-1H-Pyrazole-4-Sulfonamide]	≤ 400		> 2500	
COc1ccc2cnn(C)c2c1NS(=O)(=O)c1cnn(-c2cc(C3(F)CC(F)C3)ccn2)c1 (single isomer, unassigned) [Compound I-378, 1-(4-(1,3-difluorocyclobutyl)pyridin-2-yl)-N-(6-methoxy-1-methyl-1H-indazol-7-yl)-1H-pyrazole-4-sulfonamide]	≤ 400	< 400		
CC[C@](C)(OC)c1ccnc(-n2cc(S(=O)(=O)Nc3cccc4cnn(C)c34)cn2)c1 (stereo in doubt) [Compound I-313, 1-(4-(2-methoxybutan-2-yl)pyridin-2-yl)-N-(1-methyl-1H-indazol-7-yl)-1H-pyrazole-4-sulfonamide]	> 2500		< 400	
